Laboratory results published in PMC11169557, “The Goldilocks paradigm: comparing classical machine learning, large language models, and few-shot learning for drug discovery applications” (Communications Chemistry, 2024).
Counter-ions that a name gives are not always drawn.

Biological target: MARK1 (Homo sapiens, UniProt Q9P0L2)
Assay: MARK1 inhibition, IC50 determination (dose-response) using Z'-LYTE assay
Assay type: biochemical
Conditions: for Active (Measured): hits of the initial screen followed up with dose-response curves, 1 = true MARK1 inhibitor; for MARK1 inhibitor (result in words): out of the 13 tested compounds; for IC50: Z'-LYTE assay, non-linear regression (3-parameters)

Chain of MARK1 (Q9P0L2 whole entry): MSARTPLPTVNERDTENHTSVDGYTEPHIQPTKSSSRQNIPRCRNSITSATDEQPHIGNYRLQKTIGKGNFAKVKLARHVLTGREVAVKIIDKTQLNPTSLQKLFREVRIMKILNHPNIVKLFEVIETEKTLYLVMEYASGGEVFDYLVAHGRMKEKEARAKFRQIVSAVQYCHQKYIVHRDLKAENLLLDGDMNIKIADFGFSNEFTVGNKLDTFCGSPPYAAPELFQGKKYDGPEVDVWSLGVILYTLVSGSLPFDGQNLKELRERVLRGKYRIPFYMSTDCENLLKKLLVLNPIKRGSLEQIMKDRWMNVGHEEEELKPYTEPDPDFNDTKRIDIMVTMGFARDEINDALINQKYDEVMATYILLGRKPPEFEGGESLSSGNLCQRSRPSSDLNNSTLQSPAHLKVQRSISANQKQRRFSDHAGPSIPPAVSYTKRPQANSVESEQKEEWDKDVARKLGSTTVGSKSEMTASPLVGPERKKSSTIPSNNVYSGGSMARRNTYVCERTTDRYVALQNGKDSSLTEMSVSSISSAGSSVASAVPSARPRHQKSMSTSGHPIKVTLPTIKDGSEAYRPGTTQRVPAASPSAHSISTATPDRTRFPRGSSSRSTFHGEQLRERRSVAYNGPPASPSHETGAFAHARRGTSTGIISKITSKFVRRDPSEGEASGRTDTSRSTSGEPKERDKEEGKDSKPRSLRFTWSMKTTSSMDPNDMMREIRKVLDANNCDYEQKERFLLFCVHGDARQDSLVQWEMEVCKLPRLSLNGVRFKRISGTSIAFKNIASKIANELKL

SMILES | Active (Measured) | MARK1 inhibitor (result in words) | IC50 [nM]
C[C@@H](Oc1cc(-c2cnn(C3CCNCC3)c2)cnc1N)c1c(Cl)ccc(F)c1Cl [Crizotinib] | 0 | – | –
COc1cc(Nc2c(C#N)cnc3cc(OCCCN4CCN(C)CC4)c(OC)cc23)c(Cl)cc1Cl [Bosutinib] | 0 | – | –
CCS(=O)(=O)N1CC(CC#N)(n2cc(-c3ncnc4[nH]ccc34)cn2)C1 [Baricitinib] | 1 | true novel MARK1 active inhibitors | 166
Cc1cc(Nc2ncc(Cl)c(Nc3ccccc3S(=O)(=O)C(C)C)n2)c(OC(C)C)cc1C1CCNCC1 [Ceritinib] | 0 | – | –
CC(C)(C)NC[C@H](O)COc1cccc2c1CCCC2=O.Cl [Levobunolol (hydrochloride)] | 0 | – | –
Cc1cc(C(C#N)c2ccc(Cl)cc2)c(Cl)cc1NC(=O)c1cc(I)cc(I)c1O (stereo not drawn) [Closantel] | 0 | – | –
O=C(Nc1c[nH]nc1-c1nc2ccc(CN3CCOCC3)cc2[nH]1)NC1CC1 [AT9283] | 1 | true novel MARK1 active inhibitors | 185

Continued, values first:

Active (Measured) | MARK1 inhibitor (result in words) | IC50 [nM] | SMILES
1 | true novel MARK1 active inhibitors | – | C[C@@H]1CCN(C(=O)CC#N)C[C@@H]1N(C)c1ncnc2[nH]ccc12 [Tofacitinib citrate]
0 | – | – | CCCCCCCCc1ccc(CCC(N)(CO)CO)cc1 [fingolimod]
1 | true novel MARK1 active inhibitors | 219 | CN1CCN(c2ccc(Nc3ncc4cc(C#N)c(=O)n(C5CCCC5)c4n3)cc2)CC1 [ON123300]
1 | true novel MARK1 active inhibitors | 327 | CC[C@@H]1CN(C(=O)NCC(F)(F)F)C[C@@H]1c1cnc2cnc3[nH]ccc3n12 [Upadacitinib]
0 | – | – | COc1cc(O)c2c(c1)oc(=O)c1c3cc(O)c(O)cc3oc21 [Wedelolactone]
